Assay [1] concerns HL-1 cardiomyocytes. Nature of the assay: Mitochondrial biogenesis marker mRNA levels by quantitative RT-PCR in HL-1 cardiomyocytes. It is filed as cell-based, mouse. The settings on record: HL-1 cells; for mRNA levels of mitochondrial biogenesis markers (PGC-1α, NRF1, Tfam, cyt c, COX IV): agent alone vs untreated cells, α5 1% w/v or BCAAem 48 h, 1 μM DOX 16 h; for prevention of DOX-induced decrease of mitochondrial biogenesis marker mRNA: supplement 48 h with 1 μM DOX 16 h, vs DOX-treated cells. Here is the method: (§1) Rules of the Declaration of Helsinki have been followed. HL-1 cardiomyocytes were obtained from W.C. Claycomb (Millipore Cat #SCC065) and plated in fibronectin/gelatin-coated flasks, grown to 70-80% confluence in Claycomb medium (Sigma-Aldrich) supplemented with 100 μM norepinephrine (from a 10 mM norepinephrine [Sigma-Aldrich] stock solution dissolved in 30 mM L-ascorbic acid [Sigma-Aldrich]), 2 mM L-glutamine, 100 U/ml penicillin, 100 μg/ml streptomycin and 10% Fetal Bovine Serum (FBS, Sigma-Aldrich). MCF-7 human breast cancer cell line (ATCC® HTB-22™) also available from P. Limonta (Pharmacological and Biomolecular Sciences, University of Milan, Milan, Italy) were cultured in pH 7.4 DMEM, containing streptomycin (100 U/ml), penicillin ([…]), and gentamicin ([…]), and supplemented with 10% FBS. Both cell types were treated with […] or α5 for 48 h and 1 μM DOX for 16 h (FIG. 1). […] The cycle number at which the various transcripts were detectable (threshold cycle, CT) was compared to that of TBP, referred to as ΔCT.

The subject of assay [2] is HL-1 cardiomyocytes. Nature of the assay: Signaling pathways (eNOS, S6, Sestrin2, Akt, KLF15, BCKDH) in HL-1 cardiomyocytes. It is filed as cell-based, mouse. Conditions: HL-1 cells. The protocol:
as §1, with “HTB-22TM)” for “HTB-22™)”, “Lafayette, CO) or siGENOME nontargeting siRNA using Dharmafect 1 transfection reagent. After 24 h transfection, cells” for “The cycle number at which the various transcripts”, “treated with 1% α5 for 24 h and 1 μM DOX for 16 h. Transfection efficacy” for “detectable (threshold cycle, CT)”, “determined with siGLO-RISC-free nontargeting siRNA and siRNA uptake by fluorescence detection (absorbance/emission 557/570). Proteins were then extracted for Western blotting analysis.” for “compared to that of TBP, referred to as ΔCT.”

Assay [3] deals with left ventricle of DOX-treated mice. Nature of the assay: Mitochondrial biogenesis, mass, function and ROS defense genes in left ventricle of DOX-treated mice.
Method: (§3) Drinking volume, food intake, and body weight were checked twice weekly. At the end of the treatment period, mice were sacrificed by cervical dislocation and hearts quickly removed and freshly used (for oxygen consumption analysis) or frozen in liquid nitrogen and stored at ˜80° C. (for mtDNA, mRNA, and protein level measurement, in addition to citrate synthase activity analysis).
(§4) Quantitative RT-PCRs were performed as previously described [3-7] with the iQ SybrGreenl SuperMix (Bio-Rad; Segrate, Italy) on an iCycler iQ real-time PCR detection system (Bio-Rad). Briefly, RNA was isolated from left ventricle using the RNeasy Tissue Mini Kit (Qiagen) or from HL-1 cells using the RNeasy Mini Kit (Qiagen). cDNA was synthesized using the iScript cDNA Synthesis Kit (Bio-Rad Laboratories).
For mtDNA analysis, total DNA was extracted with a QIAamp DNA Extraction Kit (Qiagen). mtDNA was amplified using primers specific for the mtDNA and normalized to the 18S gene (Table 2) [9]. The mtDNA content was determined using qRT-PCR by measuring the threshold cycle ratio (ΔCT) of the mtDNA gene vs. that of a nuclear encoded gene (18S) in left ventricle of DOX-, α5- or DOX plus α5-treated mice, in addition to control untreated mice [10,11].
The activity was measured spectrophotometrically at 412 nm at 30° C. in left ventricle extracts [12,13].
Assay [4] has as its system HL-1 cardiomyocytes. Nature of the assay: MTT viability assay of HL-1 cardiomyocytes. It is filed as cell-based, mouse. The settings on record: agent alone; 1% α5 48 h or 1 μM DOX 16 h. Here is the method:
as §1, with “1). HL-1 cell viability was assessed by MTT [3-(4,5-dimethylthiazol-2-yl)-2,5-diphenyltetrazolium bromide] reagent (Sigma, Milan, Italy).” for “1).”, “purple formazan crystals were dissolved in 5% SDS/0.1 M HCl (100 μl/well), and the absorbance was recorded on a microplate reader (ELx800, BioTek Instruments, VT, USA)” for “cycle number”, “a wavelength of 570 nm. Each test” for “which the various transcripts were detectable (threshold cycle, CT)”, “repeated at least four times in quadruplicates.” for “compared to that of TBP, referred to as ΔCT.”
A general note: Tetrazolium assays rely on reduction of a dye to a coloured formazan, in cell work by metabolically active cells.

The subject of assay [5] is HL-1 cardiomyocytes. Nature of the assay: Mitochondrial oxidative stress in HL-1 cardiomyocytes (H2O2 release, aconitase, SOD, anti-ROS genes, 8-OHdG). The settings on record: HL-1 cells; agent alone vs untreated cells. Type of assay: cell-based, mouse. The protocol:
(§2) Rules of the Declaration of Helsinki have been followed. HL-1 cardiomyocytes were obtained from W.C. Claycomb (Millipore Cat #SCC065) and plated in fibronectin/gelatin-coated flasks, grown to 70-80% confluence in Claycomb medium (Sigma-Aldrich) supplemented with 100 μM norepinephrine (from a 10 mM norepinephrine [Sigma-Aldrich] stock solution dissolved in 30 mM L-ascorbic acid [Sigma-Aldrich]), 2 mM L-glutamine, 100 U/ml penicillin, 100 μg/ml streptomycin and 10% Fetal Bovine Serum (FBS, Sigma-Aldrich). MCF-7 human breast cancer cell line (ATCC® HTB-22™) also available from P. Limonta (Pharmacological and Biomolecular Sciences, University of Milan, Milan, Italy) were cultured in pH 7.4 DMEM, containing streptomycin (100 U/ml), penicillin ([…]), and gentamicin ([…]), and supplemented with 10% FBS. Both cell types were treated with […] or α5 for 48 h and 1 μM DOX for 16 h (FIG. 1).
To investigate the mitochondrial oxidative stress, mitochondria were isolated using the Qproteome Mitochondria isolation kit (Qiagen). Mitochondrial H2O2 release was measured in the presence of horseradish peroxidase (HRP), using the Amplex Red Hydrogen Peroxide/Peroxidase Assay kit (Molecular Probes). Fluorometric measures were made using a Fusion Universal Microplate Analyzer (Packard/PerkinElmer) with excitation filter at 550 nm and emission filter at 590 nm. H2O2 production, calculated from a standard curve, was expressed as nmol/min/mg protein as described Moreover, mitochondrial aconitase and SOD activity were measured as previously described. Briefly, the formation of NADPH was followed spectrophotometrically (340 nm) at 25° C. (for aconitase activity), while SOD activity was measured with the Superoxide Dismutase Assay Kit (Calbiochem). […] Finally, the oxidative damage of DNA was measured as a further marker of oxidative stress. […] Quality and quantity of DNA were confirmed by a NanoDrop ND-1000 spectrophotometry analysis. Absorbance of the ELISA reaction product was determined spectrophotometrically using 450 nm as the primary wave.

Assay [6] has as its system HL-1 cardiomyocytes. Nature of the assay: Citrate synthase activity in HL-1 cardiomyocytes. It is filed as cell-based, mouse. The settings on record: HL-1 cells; agent alone vs untreated cells. The protocol: as §2
The subject of assay [7] is left ventricle of DOX-treated mice. Nature of the assay: Signaling pathways (eNOS, mTORC1, Sestrin2, KLF15, BCKDH) in left ventricle of mice. It is filed as in vivo, C57BL6/J mice.
Method: as §3, §4
Protein extracts were obtained from left ventricle with T-PER mammalian protein extraction reagent (Pierce, ThermoScientific, Rockford, USA) or from HL-1 cells in M-PER mammalian protein extraction reagent (Pierce, ThermoScientific, Rockford, USA), as indicated by the manufacturer, in the presence of 1 mM NaVO4, 10 mM NaF and a cocktail of protease inhibitors (Sigma-Aldrich, Milan, Italy). Protein content was determined by the bicinchoninic acid protein assay (BCA, Pierce, Euroclone, Milan, Italy), and 50 of the protein extract was separated by SDS-PAGE under reducing conditions. The separated proteins were then electrophoretically transferred to a nitrocellulose membrane (Bio-Rad Laboratories, Segrate, Italy) [3-8]. Proteins of interest were detected with specific antibodies: anti-COX IV (cytochrome c oxidase subunit IV, Cell Signaling Technology Cat #4844, Euroclone, Milan, Italy), anti-cyt c (cytochrome complex, Cell Signaling Technology Cat #4280), anti-PGC-1α (proliferator-activated receptor γ coactivator 1α, Cell Signaling Technology Cat #2178), anti-phospho-AKT (Ser473) (Cell Signaling Technology Cat #4060), anti-AKT (Cell Signaling Technology Cat #4685), anti-phospho-eNOS (Ser1177) (phospho-endothelial nitric oxide synthase, Cell Signaling Technology Cat #9571), anti-eNOS (Cell Signaling Technology Cat #9572), anti-phospho-S6 (Ser235/236) (phospho-S6, Cell Signaling Technology Cat #4858), anti-S6 (Cell Signaling Technology Cat #2217), anti-phospho-mTOR (Ser2481) (Cell Signaling Technology Cat #2974), anti-mTOR (Cell Signaling Technology Cat #2972), anti-phospho-BCKDH (Ser293) (Abcam Cat #200577), anti-BCKDH (Abcam Cat #138460), and anti-GAPDH (1:1000, Cell Signaling Technology Cat #2118) at 1:1000 dilution each. After the visualization of phospho-eNOS, phospho-AKT, phospho-mTOR, phospho-S6, and anti-phospho-BCKDH the filters were stripped with the Restore™ western blot stripping buffer (Euroclone, Milan, Italy) and further used for the visualization of total eNOS, total AKT, total mTOR, total S6, or total BCKDH. Immunostaining was performed using horseradish peroxidase-conjugated anti-rabbit or anti-mouse immunoglobulin for 1 h at room temperature. The protein was detected using SuperSignal substrate (Pierce, Euroclone, Milan, Italy) and quantified by densitometry with ImageJ image analysis software.
The test system of assay [8] is HL-1 cardiomyocytes. Nature of the assay: Klf15, eNOS and Raptor siRNA knockdown in HL-1 cardiomyocytes, RT-PCR and immunoblot. Type of assay: cell-based, mouse. Conditions: HL-1 cells. Here is the method:
For the study of phospho-proteins, HL-1 cells were treated with 1% α5 for 2 h and 1 μM DOX (Doxo-HCl from Sigma-Aldrich D15D15) for the last 60 min. […] After 24 h transfection, cells were treated with 1% α5 for 24 h and 1 μM DOX for 16 h. Transfection efficacy was determined with siGLO-RISC-free nontargeting siRNA and siRNA uptake by fluorescence detection (absorbance/emission 557/570). Proteins were then extracted for Western blotting analysis.
For orientation: A western blot detects proteins with antibodies after separation by electrophoresis.

`O=C(O)CCC(=O)O` [succinic acid]: in the assay with HL-1 cardiomyocytes [1], the “mRNA levels of mitochondrial biogenesis markers (PGC-1α, NRF1, Tfam, cyt c, COX IV)” value is given as “unable to prevent the DOX-induced reduction of mitochondrial biogenesis as well as to change the mitochondrial gene expression when supplemented alone” and the “prevention of DOX-induced decrease of mitochondrial biogenesis marker mRNA” value is “unable to prevent the DOX-induced reduction of mitochondrial biogenesis”.

`COc1cccc2c1C(=O)c1c(O)c3c(c(O)c1C2=O)C[C@@](O)(C(=O)CO)C[C@@H]3O[C@H]1C[C@H](N)[C@H](O)[C@H](C)O1` [DOX, doxorubicin]: the “(Ser293)-BCKDH phosphorylation (p-BCKDH)” value in the assay with HL-1 cardiomyocytes [2] (DOX vs untreated, α5 with or without DOX) is “not different”. Also, in the assay on HL-1 cardiomyocytes [2] (agent alone), the “(Ser235/236)-S6 phosphorylation” value is reported as “markedly decreased”; the “(Ser 473)-Akt phosphorylation” value is recorded as “markedly reduced Akt phosphorylation”; the “KLF15 expression (mRNA and protein)” value was “reduced both at mRNA and protein levels”; the Sestrin2 expression result is given as “markedly increased”. For the same compound, the “(Ser1177)-eNOS phosphorylation” value in the assay on HL-1 cardiomyocytes [2] (agent alone, 1 μM DOX) is given as “markedly reduced”. Besides, the eNOS gene expression entry with HL-1 cardiomyocytes [2] (agent alone, 1 μM DOX or α5 1% w/v) is given as “only slightly decreased”. Further, in assay [3] (agent alone), the “expression of ROS defense enzymes (SOD1, SOD2, catalase, GPX1) in left ventricle” value is listed as “augmented the expression of ROS defense enzymes”. The “mRNA levels of mitochondrial biogenesis genes in left ventricle” value in assay [3] (agent alone vs control group) is given as “reduced”. Further, in assay [3] (agent alone vs saline-treated), the “mitochondrial mass and function (mtDNA amount, respiratory proteins particularly COX IV, citrate synthase activity) in left ventricle” value is recorded as “lower”. Further, the “oxygen consumption rate (OCR) of mitochondria isolated from left ventricle” value in assay [3] (agent alone, Clark's electrode) is given as “decreased OCR”. The “HL-1 cell survival (MTT)” value in the assay with HL-1 cardiomyocytes [4] is given as “DOX-induced death of HL-1 cells”. In the assay with HL-1 cardiomyocytes [5], the “8-hydroxy-2′-deoxyguanosine (8-OHdG), oxidative DNA damage” value is listed as “higher amount”; the “expression of GPX1 and SOD1 genes” value was “increased”; the “mitochondrial H2O2 release” value was “markedly increased”. Besides, the citrate synthase activity entry with HL-1 cardiomyocytes [6] is given as “reduction of citrate synthase activity”. Also, in the assay with HL-1 cardiomyocytes [1], the “mRNA levels of mitochondrial biogenesis markers (PGC-1α, NRF1, Tfam, cyt c, COX IV)” value is “decreased”. In assay [7] (agent alone), the “Klf15 mRNA levels in left ventricle” value is “significantly reduced”; the “Ser2481 mTOR phosphorylation in heart” value is “reduced”; the “Sestrin2 mRNA in left ventricle” value is recorded as “markedly increased”; the “eNOS activity, (Ser1177)phospho-eNOS to total eNOS ratio, in left ventricle” value is reported as “only partially eNOS activity”. The “eNOS expression in left ventricle” value in assay [7] (agent alone) is given as “decreased eNOS expression”. The “(Ser235/236)phospho-S6 to total S6 ratio in left ventricle” value in assay [7] (agent alone vs saline) is “decreased”. The “(Ser293)-BCKDH phosphorylation in left ventricle” value in assay [7] (agent alone vs saline-treated) is on record as “unchanged”. In addition, the “PGC-1α and COX IV protein” value in the assay with HL-1 cardiomyocytes [8] (Klf15 siRNA-transfected or otherwise untreated, DOX exposure) is “significantly decreased both PGC-1α and COX IV protein”. In the assay on HL-1 cardiomyocytes [8] (Klf15 siRNA, DOX-treated and untreated), the “(Ser293)-BCKDH phosphorylation in Klf15 knockdown cells” value is on record as “unable to change phosphorylation”.

As for `O=C(O)CC(O)C(=O)O` (centres unmarked) [malic acid], in the assay on HL-1 cardiomyocytes [1], the “mRNA levels of mitochondrial biogenesis markers (PGC-1α, NRF1, Tfam, cyt c, COX IV)” value is “unable to prevent the DOX-induced reduction of mitochondrial biogenesis as well as to change the mitochondrial gene expression when supplemented alone” and the “prevention of DOX-induced decrease of mitochondrial biogenesis marker mRNA” value is “unable to prevent the DOX-induced reduction of mitochondrial biogenesis”.

On to `O=C(O)CC(O)(CC(=O)O)C(=O)O` [citric acid], for which, in the assay on HL-1 cardiomyocytes [1], the “mRNA levels of mitochondrial biogenesis markers (PGC-1α, NRF1, Tfam, cyt c, COX IV)” value is on record as “unable to prevent the DOX-induced reduction of mitochondrial biogenesis as well as to change the mitochondrial gene expression when supplemented alone” and the “prevention of DOX-induced decrease of mitochondrial biogenesis marker mRNA” value is “unable to prevent the DOX-induced reduction of mitochondrial biogenesis”.

Values taken from US12472159B2, “Compositions comprising amino acids for use in the prevention and treatment of chemotherapy side effects” (Professional Dietetics S.p.A., priority 2020, dated 2025).
